Key:
Experiment in all cases: radiometric filter-binding kinase assay, Kinase HotSpot
Details in all cases: compound 0.5 µM; ATP 10 µM
CAMK1 (human) = CAMK1 (human) (UniProt Q14012)
MAPK10 (human) = MAPK10 (human) (UniProt P53779)
NEK1 (human) = NEK1 (human) (UniProt Q96PY6)
CDK1 CCNB1 (human) = CDK1 CCNB1 (human) (UniProt P06493+P14635)
PKN2 (human) = PKN2 (human) (UniProt Q16513)
CAMK1G (human) = CAMK1G (human) (UniProt Q96NX5)
CDK2 CCNE1 (human) = CDK2 CCNE1 (human) (UniProt P24941+P24864)
MAP3K2 (human) = MAP3K2 (human) (UniProt Q9Y2U5)
PKN1 (human) = PKN1 (human) (UniProt Q16512)
ZAP70 (human) = ZAP70 (human) (UniProt P43403)
STK17A (human) = STK17A (human) (UniProt Q9UEE5)
FGR (human) = FGR (human) (UniProt P09769)
STK10 (human) = STK10 (human) (UniProt O94804)
KIT (human) = KIT (human) (UniProt P10721)
Chain of KIT (human) (P10721 whole entry, looked up): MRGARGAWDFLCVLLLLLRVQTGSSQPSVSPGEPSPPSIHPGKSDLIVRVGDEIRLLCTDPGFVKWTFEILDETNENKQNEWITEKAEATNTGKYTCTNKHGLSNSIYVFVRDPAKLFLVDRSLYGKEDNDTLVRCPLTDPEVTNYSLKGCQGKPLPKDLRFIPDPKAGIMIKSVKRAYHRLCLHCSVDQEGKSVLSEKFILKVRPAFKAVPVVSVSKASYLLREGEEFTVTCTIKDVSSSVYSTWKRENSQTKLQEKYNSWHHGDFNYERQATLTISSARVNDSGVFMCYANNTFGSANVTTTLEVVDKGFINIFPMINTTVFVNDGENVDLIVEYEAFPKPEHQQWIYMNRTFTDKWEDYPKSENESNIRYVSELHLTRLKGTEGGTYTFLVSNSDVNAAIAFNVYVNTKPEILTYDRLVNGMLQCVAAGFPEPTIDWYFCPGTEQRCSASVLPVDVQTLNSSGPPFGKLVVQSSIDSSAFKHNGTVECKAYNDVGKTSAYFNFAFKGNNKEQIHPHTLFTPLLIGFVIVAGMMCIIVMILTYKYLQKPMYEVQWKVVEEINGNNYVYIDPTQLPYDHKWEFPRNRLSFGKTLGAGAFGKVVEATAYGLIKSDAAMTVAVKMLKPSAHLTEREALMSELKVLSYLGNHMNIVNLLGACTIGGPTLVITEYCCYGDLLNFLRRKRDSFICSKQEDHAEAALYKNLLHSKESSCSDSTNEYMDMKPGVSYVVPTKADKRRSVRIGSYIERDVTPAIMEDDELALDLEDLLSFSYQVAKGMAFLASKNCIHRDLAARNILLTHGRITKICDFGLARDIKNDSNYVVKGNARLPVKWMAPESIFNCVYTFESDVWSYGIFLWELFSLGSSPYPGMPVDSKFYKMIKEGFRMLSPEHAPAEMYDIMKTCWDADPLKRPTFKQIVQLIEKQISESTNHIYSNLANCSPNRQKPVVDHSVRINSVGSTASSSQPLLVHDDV

HIPK3 (human) = HIPK3 (human) (UniProt Q9H422)
Chain of HIPK3 (human) (Q9H422 whole entry, looked up): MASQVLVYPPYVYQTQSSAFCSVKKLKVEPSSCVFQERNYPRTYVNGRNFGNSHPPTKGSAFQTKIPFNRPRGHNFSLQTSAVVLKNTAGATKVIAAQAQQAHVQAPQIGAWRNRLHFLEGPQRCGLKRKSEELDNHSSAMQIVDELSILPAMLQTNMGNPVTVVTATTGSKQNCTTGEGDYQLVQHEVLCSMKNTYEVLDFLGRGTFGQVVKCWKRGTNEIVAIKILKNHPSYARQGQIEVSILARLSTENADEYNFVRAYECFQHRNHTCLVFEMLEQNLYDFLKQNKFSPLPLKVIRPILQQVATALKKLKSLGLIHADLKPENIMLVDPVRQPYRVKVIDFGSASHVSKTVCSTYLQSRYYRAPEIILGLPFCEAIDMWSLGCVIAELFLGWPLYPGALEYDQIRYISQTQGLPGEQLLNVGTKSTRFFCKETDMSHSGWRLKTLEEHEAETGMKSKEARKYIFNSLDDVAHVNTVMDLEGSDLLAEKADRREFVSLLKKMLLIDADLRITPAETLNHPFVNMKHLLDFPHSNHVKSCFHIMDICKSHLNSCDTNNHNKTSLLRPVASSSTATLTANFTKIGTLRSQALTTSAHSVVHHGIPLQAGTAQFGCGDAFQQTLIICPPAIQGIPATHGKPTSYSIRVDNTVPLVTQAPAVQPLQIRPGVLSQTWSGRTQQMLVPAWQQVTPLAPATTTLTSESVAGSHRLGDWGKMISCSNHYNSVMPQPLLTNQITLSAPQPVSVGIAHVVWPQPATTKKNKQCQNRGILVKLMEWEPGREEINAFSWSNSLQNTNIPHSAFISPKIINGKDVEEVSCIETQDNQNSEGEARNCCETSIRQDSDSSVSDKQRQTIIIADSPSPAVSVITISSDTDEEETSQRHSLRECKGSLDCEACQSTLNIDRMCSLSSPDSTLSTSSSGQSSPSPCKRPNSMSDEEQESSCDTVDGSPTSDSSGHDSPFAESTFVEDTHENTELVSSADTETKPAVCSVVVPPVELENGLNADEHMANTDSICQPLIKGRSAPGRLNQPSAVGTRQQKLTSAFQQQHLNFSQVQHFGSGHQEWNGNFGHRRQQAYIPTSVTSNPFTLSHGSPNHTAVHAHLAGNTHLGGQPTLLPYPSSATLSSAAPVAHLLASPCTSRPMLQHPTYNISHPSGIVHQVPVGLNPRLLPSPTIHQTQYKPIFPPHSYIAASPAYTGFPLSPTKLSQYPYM

PTK6 (human) = PTK6 (human) (UniProt Q13882)
BMX (human) = BMX (human) (UniProt P51813)
STK11 (human) = STK11 (human) (UniProt Q15831)
Chain of STK11 (human) (Q15831 whole entry, looked up): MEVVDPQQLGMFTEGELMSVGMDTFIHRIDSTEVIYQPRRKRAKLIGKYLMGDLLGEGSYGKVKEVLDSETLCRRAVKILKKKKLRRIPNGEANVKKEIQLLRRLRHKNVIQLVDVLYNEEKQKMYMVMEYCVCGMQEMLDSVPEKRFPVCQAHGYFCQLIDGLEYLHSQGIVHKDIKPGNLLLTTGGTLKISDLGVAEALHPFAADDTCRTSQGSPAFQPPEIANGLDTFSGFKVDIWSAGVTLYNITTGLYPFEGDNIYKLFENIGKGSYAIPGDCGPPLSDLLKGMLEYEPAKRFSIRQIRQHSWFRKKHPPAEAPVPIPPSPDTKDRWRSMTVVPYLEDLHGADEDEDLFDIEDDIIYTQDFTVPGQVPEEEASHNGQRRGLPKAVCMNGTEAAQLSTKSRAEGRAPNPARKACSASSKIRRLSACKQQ

[1] = system: MAP2K6 (human), P52564 [S207E/T211E]
IRAK4 (human) = IRAK4 (human) (UniProt Q9NWZ3)
[2] = system: PRKCQ (human), Q04759 [P330L]
FER (human) = FER (human) (UniProt P16591)
TBK1 (human) = TBK1 (human) (UniProt Q9UHD2)
SRC (human) = SRC (human) (UniProt P12931)
MAPK14 (human) = MAPK14 (human) (UniProt Q16539)
[3] = system: MKNK1 (human), Q9BUB5 [T385D; 165-205 del]
STK16 (human) = STK16 (human) (UniProt O75716)
CDK9 CCNT1 (human) = CDK9 CCNT1 (human) (UniProt P50750+O60563)
INSR (human) = INSR (human) (UniProt P06213)
Chain of INSR (human) (P06213 whole entry, looked up): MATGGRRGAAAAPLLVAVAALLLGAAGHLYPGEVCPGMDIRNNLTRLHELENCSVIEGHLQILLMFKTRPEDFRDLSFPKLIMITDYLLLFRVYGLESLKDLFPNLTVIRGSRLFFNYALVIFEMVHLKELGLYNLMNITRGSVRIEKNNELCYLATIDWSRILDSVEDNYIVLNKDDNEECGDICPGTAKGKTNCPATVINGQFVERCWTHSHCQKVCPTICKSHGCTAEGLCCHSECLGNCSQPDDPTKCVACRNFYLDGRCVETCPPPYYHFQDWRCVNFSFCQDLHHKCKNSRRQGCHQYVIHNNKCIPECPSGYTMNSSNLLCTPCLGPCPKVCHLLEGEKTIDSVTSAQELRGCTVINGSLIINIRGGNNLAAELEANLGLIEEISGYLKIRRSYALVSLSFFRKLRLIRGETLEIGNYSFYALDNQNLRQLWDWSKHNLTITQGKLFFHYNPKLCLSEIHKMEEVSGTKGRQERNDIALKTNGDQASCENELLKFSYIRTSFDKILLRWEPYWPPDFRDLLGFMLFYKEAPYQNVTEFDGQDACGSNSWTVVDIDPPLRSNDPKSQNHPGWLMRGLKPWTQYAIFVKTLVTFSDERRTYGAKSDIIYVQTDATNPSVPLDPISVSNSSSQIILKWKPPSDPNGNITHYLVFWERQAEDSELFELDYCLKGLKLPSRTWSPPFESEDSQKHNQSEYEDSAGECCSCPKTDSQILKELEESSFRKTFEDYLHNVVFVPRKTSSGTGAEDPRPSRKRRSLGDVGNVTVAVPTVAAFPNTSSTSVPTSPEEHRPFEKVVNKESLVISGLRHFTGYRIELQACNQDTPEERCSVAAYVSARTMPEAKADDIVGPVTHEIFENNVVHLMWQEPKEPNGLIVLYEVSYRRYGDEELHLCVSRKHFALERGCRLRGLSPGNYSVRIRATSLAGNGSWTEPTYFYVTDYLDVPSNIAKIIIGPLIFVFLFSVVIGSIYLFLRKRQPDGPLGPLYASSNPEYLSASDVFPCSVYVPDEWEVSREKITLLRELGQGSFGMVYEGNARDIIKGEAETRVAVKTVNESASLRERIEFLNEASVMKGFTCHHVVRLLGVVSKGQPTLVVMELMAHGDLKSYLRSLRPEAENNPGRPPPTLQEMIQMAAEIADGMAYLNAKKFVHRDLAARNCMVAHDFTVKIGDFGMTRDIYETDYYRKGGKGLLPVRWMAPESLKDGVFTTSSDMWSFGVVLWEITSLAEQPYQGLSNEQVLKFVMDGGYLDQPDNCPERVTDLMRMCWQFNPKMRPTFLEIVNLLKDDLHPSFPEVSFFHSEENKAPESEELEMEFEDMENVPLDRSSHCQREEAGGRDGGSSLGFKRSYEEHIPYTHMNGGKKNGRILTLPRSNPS

MAP2K2 (human) = MAP2K2 (human) (UniProt P36507)
LRRK2 (human) = LRRK2 (human) (UniProt Q5S007)
NEK2 (human) = NEK2 (human) (UniProt P51955)
MAPK11 (human) = MAPK11 (human) (UniProt Q15759)
Chain of MAPK11 (human) (Q15759 whole entry, looked up): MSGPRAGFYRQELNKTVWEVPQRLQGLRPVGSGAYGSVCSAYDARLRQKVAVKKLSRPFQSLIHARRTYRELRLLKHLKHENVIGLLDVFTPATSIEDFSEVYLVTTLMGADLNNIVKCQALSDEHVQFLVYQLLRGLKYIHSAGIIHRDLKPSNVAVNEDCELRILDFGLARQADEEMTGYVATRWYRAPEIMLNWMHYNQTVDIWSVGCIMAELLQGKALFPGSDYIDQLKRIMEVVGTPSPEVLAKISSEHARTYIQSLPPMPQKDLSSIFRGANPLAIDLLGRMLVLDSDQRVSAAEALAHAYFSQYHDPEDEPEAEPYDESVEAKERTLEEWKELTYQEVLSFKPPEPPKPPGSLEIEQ

CAMK1D (human) = CAMK1D (human) (UniProt Q8IU85)
BTK (human) = BTK (human) (UniProt Q06187)
BRSK2 (human) = BRSK2 (human) (UniProt Q8IWQ3)
CSNK2A1 (human) = CSNK2A1 (human) (UniProt P68400)
PAK2 (human) = PAK2 (human) (UniProt Q13177)
Chain of PAK2 (human) (Q13177 whole entry, looked up): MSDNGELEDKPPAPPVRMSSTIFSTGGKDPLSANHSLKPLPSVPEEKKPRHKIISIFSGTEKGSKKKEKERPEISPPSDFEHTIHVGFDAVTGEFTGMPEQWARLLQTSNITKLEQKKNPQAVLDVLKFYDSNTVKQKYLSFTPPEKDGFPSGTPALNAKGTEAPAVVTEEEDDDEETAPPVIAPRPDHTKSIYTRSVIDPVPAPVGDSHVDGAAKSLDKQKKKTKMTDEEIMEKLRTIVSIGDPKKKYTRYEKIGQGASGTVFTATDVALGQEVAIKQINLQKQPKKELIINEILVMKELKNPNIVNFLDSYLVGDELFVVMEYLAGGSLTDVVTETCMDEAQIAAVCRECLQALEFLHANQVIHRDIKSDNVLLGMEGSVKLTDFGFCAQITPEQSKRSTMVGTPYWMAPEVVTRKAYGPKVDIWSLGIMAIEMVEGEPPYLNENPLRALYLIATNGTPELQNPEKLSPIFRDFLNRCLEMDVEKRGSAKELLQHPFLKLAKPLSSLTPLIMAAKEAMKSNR

CDK4 CCND3 (human) = CDK4 CCND3 (human) (UniProt P30281+P11802)
SRPK2 (human) = SRPK2 (human) (UniProt P78362)
MARK4 (human) = MARK4 (human) (UniProt Q96L34)

CN(C)c1ccc(/C=C2\C(=O)Nc3ccccc32)cc1
residual activity (CAMK1 (human)): 104% | residual activity (MAPK10 (human)): 82.9% | residual activity (NEK1 (human)): 112% | residual activity (CDK1 CCNB1 (human)): 94.1% | residual activity (PKN2 (human)): 98.9% | residual activity (CAMK1G (human)): 99.9% | residual activity (CDK2 CCNE1 (human)): 97.1% | residual activity (MAP3K2 (human)): 99.8% | residual activity (PKN1 (human)): 98.4% | residual activity (ZAP70 (human)): 89.9% | residual activity (STK17A (human)): 93.8% | residual activity (FGR (human)): 90% | residual activity (STK10 (human)): 95.4% | residual activity (KIT (human)): 45.6% | residual activity (HIPK3 (human)): 94.4% | residual activity (PTK6 (human)): 98.8% | residual activity (BMX (human)): 92.2% | residual activity (STK11 (human)): 99.4% | residual activity [1]: 94.7% | residual activity (IRAK4 (human)): 104% | residual activity [2]: 104% | residual activity (FER (human)): 94.5% | residual activity (TBK1 (human)): 98.4% | residual activity (SRC (human)): 102% | residual activity (MAPK14 (human)): 92.4% | residual activity [3]: 97.3% | residual activity (STK16 (human)): 87.9% | residual activity (CDK9 CCNT1 (human)): 94.5% | residual activity (INSR (human)): 93.4% | residual activity (MAP2K2 (human)): 99.4% | residual activity (LRRK2 (human)): 89.8% | residual activity (NEK2 (human)): 98.4% | residual activity (MAPK11 (human)): 93.5% | residual activity (CAMK1D (human)): 98.8% | residual activity (BTK (human)): 104% | residual activity (BRSK2 (human)): 93% | residual activity (CSNK2A1 (human)): 89.7% | residual activity (PAK2 (human)): 102% | residual activity (CDK4 CCND3 (human)): 98.9% | residual activity (SRPK2 (human)): 100% | residual activity (MARK4 (human)): 97%

COc1cc2ncnc(Nc3ccc(Oc4ccccc4)cc3)c2cc1OC
residual activity (CAMK1 (human)): 105% | residual activity (MAPK10 (human)): 103% | residual activity (NEK1 (human)): 101% | residual activity (CDK1 CCNB1 (human)): 81.2% | residual activity (PKN2 (human)): 93.6% | residual activity (CAMK1G (human)): 101% | residual activity (CDK2 CCNE1 (human)): 87.8% | residual activity (MAP3K2 (human)): 102% | residual activity (PKN1 (human)): 97.3% | residual activity (ZAP70 (human)): 97% | residual activity (STK17A (human)): 96.3% | residual activity (FGR (human)): 8.91% | residual activity (STK10 (human)): 74% | residual activity (KIT (human)): 75.6% | residual activity (HIPK3 (human)): 103% | residual activity (PTK6 (human)): -0.0383% | residual activity (BMX (human)): 76.1% | residual activity (STK11 (human)): 93.6% | residual activity [1]: 102% | residual activity (IRAK4 (human)): 112% | residual activity [2]: 124% | residual activity (FER (human)): 75.7% | residual activity (TBK1 (human)): 93.7% | residual activity (SRC (human)): 82.8% | residual activity (MAPK14 (human)): 103% | residual activity [3]: 98.9% | residual activity (STK16 (human)): 107% | residual activity (CDK9 CCNT1 (human)): 86.7% | residual activity (INSR (human)): 88.8% | residual activity (MAP2K2 (human)): 105% | residual activity (LRRK2 (human)): 65.3% | residual activity (NEK2 (human)): 111% | residual activity (MAPK11 (human)): 105% | residual activity (CAMK1D (human)): 99.7% | residual activity (BTK (human)): 38.8% | residual activity (BRSK2 (human)): 101% | residual activity (CSNK2A1 (human)): 114% | residual activity (PAK2 (human)): 78.7% | residual activity (CDK4 CCND3 (human)): 98.4% | residual activity (SRPK2 (human)): 101% | residual activity (MARK4 (human)): 105%

O=C1c2ccccc2-c2nc3nnnn3nc21
residual activity (CAMK1 (human)): 68.7% | residual activity (MAPK10 (human)): 55% | residual activity (NEK1 (human)): 46.3% | residual activity (CDK1 CCNB1 (human)): 48% | residual activity (PKN2 (human)): 77.1% | residual activity (CAMK1G (human)): 28.5% | residual activity (CDK2 CCNE1 (human)): 80.6% | residual activity (MAP3K2 (human)): 83% | residual activity (PKN1 (human)): 97.5% | residual activity (ZAP70 (human)): 68.2% | residual activity (STK17A (human)): 83.8% | residual activity (FGR (human)): 79.8% | residual activity (STK10 (human)): 84.3% | residual activity (KIT (human)): 22.2% | residual activity (HIPK3 (human)): 101% | residual activity (PTK6 (human)): 111% | residual activity (BMX (human)): 79% | residual activity (STK11 (human)): 99.1% | residual activity [1]: 85.7% | residual activity (IRAK4 (human)): 96.9% | residual activity [2]: 83% | residual activity (FER (human)): 89.1% | residual activity (TBK1 (human)): 87% | residual activity (SRC (human)): 80.4% | residual activity (MAPK14 (human)): 88.6% | residual activity [3]: 79.3% | residual activity (STK16 (human)): 80.5% | residual activity (CDK9 CCNT1 (human)): 97% | residual activity (INSR (human)): 32.3% | residual activity (MAP2K2 (human)): 94.7% | residual activity (LRRK2 (human)): 85.6% | residual activity (NEK2 (human)): 77.7% | residual activity (MAPK11 (human)): 101% | residual activity (CAMK1D (human)): 93.9% | residual activity (BTK (human)): 90.6% | residual activity (BRSK2 (human)): 66.7% | residual activity (CSNK2A1 (human)): 101% | residual activity (PAK2 (human)): 96.2% | residual activity (CDK4 CCND3 (human)): 68.1% | residual activity (SRPK2 (human)): 95.8% | residual activity (MARK4 (human)): 88.1%

— the kinase profiling compilation of Christmann-Franck et al. (2016)
